Measurements from patent US7750000B2, “Substituted imidazo[1,2b]pyridazines as kinase inhibitors, their preparation and use as medicaments” (Bayer Schering Pharma AG, priority 2005, dated 2010).

Tests used:
[1] = molecular target: PKC theta (Homo sapiens, UniProt Q04759); assay: Inhibition of PKC theta; type: biochemical
[2] = system: interleukin 2 (IL-2) secretion of peripheral blood mononuclear cells (PBMC); assay: Antibody-induced (anti-CD3/anti-CD28) IL-2 secretion in PBMC, ELISA; type: cell-based; settings: human PBMC, anti-CD3/anti-CD28 stimulation; for IC50: 20 hours, read-out: IC50 (concentration for 50% inhibition of IL-2)
Method: The extent to which test substance influence antibody-induced interleukin 2 (IL-2) secretion was investigated in the following test system. IL-2 represents a central cytokine which is produced and released by activated T cells. IL-2 synthesis in the T cells is regulated by a plurality of kinases. An inhibitory effect of substances on kinases leads inter alia to inhibition of IL-2 synthesis and inhibition of the T cell immune response. The cytokine determinations were carried out using an ELISA kit.
Peripheral blood mononuclear cells (PBMC) were isolated from heparinized human whole blood by gradient centrifugation using Histopaque 1077 (Sigma) at room temperature, and the erythrocytes were lyzed hypotonically and, after washing twice in PBS, taken up in cell culture medium (10% fetal inactivated calf serum in RPMI-1640+Glutamax-I [Gibco]).
The 96 well culture plates (Costar) were previously incubated with 100 μl of antibody solution in PBS 0.1 μg/ml in PBS [Gibco]) per well at 4° C. for 18 hours. The antibodies used were anti-CD3 and anti-CD28 monoclonal antibodies (PharMingen). After washing with PBS three times, the plates were charged with 200 μl of the cell suspension (40 000 cells/well). […]
The cultures were incubated in an incubator at 37° C. for 20 hours. After this incubation, the plates were briefly shaken and centrifuged, and […] of supernatant were removed, and the supernatants were then frozen at −20° C.
Interleukin-2 was determined using an ELISA kit (Bioscience), and the absorption of the color change was analyzed in a SpectraMax 340 PC (wavelength 450 nm). Active substances brought about a reduction in the absorption.

Chain of PKC theta (Q04759 whole entry): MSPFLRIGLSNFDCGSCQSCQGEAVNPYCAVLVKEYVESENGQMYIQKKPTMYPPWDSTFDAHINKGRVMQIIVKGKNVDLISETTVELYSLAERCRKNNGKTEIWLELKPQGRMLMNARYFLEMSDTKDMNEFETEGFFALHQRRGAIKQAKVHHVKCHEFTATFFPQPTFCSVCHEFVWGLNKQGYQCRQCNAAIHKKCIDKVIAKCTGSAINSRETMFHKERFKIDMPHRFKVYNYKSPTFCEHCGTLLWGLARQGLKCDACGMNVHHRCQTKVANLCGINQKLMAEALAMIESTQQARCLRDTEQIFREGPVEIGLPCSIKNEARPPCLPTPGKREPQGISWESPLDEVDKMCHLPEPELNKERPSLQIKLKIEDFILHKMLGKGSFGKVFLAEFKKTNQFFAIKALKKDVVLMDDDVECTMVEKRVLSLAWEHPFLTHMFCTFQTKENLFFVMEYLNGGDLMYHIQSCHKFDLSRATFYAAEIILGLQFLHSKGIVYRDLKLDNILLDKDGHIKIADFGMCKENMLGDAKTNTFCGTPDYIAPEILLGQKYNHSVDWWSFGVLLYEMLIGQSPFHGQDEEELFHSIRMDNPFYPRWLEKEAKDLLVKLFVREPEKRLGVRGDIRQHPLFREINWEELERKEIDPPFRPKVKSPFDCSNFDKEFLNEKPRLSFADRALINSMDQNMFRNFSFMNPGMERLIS

| IC50 [1] [µM] | SMILES | IC50 [2] [nM] | inhibition at 10 µM [2] [%] |
| --- | --- | --- | --- |
| 12.9 | c1ccc(-c2cnc3ccc(NCCCn4ccnc4)nn23)cc1 [KE1322-002-a] | 1700 | – |
| 11.3 | Cc1[nH]ncc1CCCNc1ccc2ncc(-c3ccccc3)n2n1 [KE1322-006-a] | 2000 | – |
| 5.4 | CCN(CC)CCCC(C)Nc1ccc2ncc(-c3ccccc3)n2n1 (stereo not drawn) [KE1322-010-a] | 1100 | – |
| 5.5 | CCN(CC)CCCNc1ccc2ncc(-c3ccccc3)n2n1 [KE1322-011-a] | 2600 | – |
| 7.2 | Clc1cccc(-c2cnc3ccc(NCCCn4ccnc4)nn23)c1 [KE1322-014-a] | 1100 | – |
| 0.22 | CCN(CC)CCCC(C)Nc1ccc2ncc(-c3cccc(Cl)c3)n2n1 (stereo not drawn) [KE1322-022-a] | 290 | – |
| 0.25 | CCN(CC)CCCNc1ccc2ncc(-c3cccc(Cl)c3)n2n1 [KE1322-023-a] | 210 | – |
| 1.7 | Clc1cccc(-c2cnc3ccc(NCCN4CCCC4)nn23)c1 [KE1322-024-a] | 1000 | – |
| 7 | Cn1cc(-c2cnc3ccc(NCC4CCCCC4)nn23)cn1 [KE1322-028-a] | – | – |
| 7.2 | Cc1[nH]ncc1CCCNc1ccc2ncc(-c3cnn(C)c3)n2n1 [KE1322-030-a] | 700 | – |
| 13 | Cc1[nH]ncc1CCCNc1ccc2ncc(-c3ccsc3)n2n1 [KE1322-042-a] | 400 | – |
| 6.1 | c1ccc(-c2cnc3ccc(NCCCN4CCCC4)nn23)cc1 [OP 3070] | 1400 | > 95 |
| 17 | c1ccc(-c2cnc3ccc(NCCCN4CCOCC4)nn23)cc1 [OP 3071] | 2500 | > 95 |
| 0.25 | Clc1cccc(-c2cnc3ccc(NCCCN4CCCC4)nn23)c1 [OP 3073] | 210 | > 95 |
| 0.41 | Clc1cccc(-c2cnc3ccc(NCCCN4CCOCC4)nn23)c1 [OP 3074] | 920 | > 95 |
